Data on 27 molecules can be found in publication PMC6753678, “Fueling Open Innovation for Malaria Transmission-Blocking Drugs: Hundreds of Molecules Targeting Early Parasite Mosquito Stages” (Frontiers in Microbiology, 2019).

As a reminder, the IC50 is the point on the concentration scale where inhibition reaches its midpoint.

One data set concerns HepG2 cells. Briefly: HepG2 cytotoxicity assay. Particulars: HepG2 cytotoxicity unified across screens; >25 set to 25.00. Summed up:
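Cells at 2,500 per well in MEM with 10% fetal bovine serum and 1% NEAA were exposed to test compounds for 48 h at 37°C, 5% CO2. Viability was read by fluorescence, with percent inhibition calculated against 50 μM doxorubicin (positive) and DMSO (negative) controls.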

The test system of data set [1] is P. falciparum late stage (stages IV-V) gametocytes. Briefly: P. falciparum late stage gametocyte ATP depletion assay (Pf GC-ATP). To be noted: 1: YES; 0: NO; >10-fold selectivity over cytotoxicity.
The test system is the same in data set [2]. Details: method as in Almela et al 2016. Particulars: P. falciparum late stage gametocyte ATP assay, TCAMS screen; ref Almela et al 2016; read-out: Pf GCT ATP IC50; cited from earlier work.

As to `O=C(Nc1ccc(F)c(C(F)(F)F)c1)NC1CCN(CCCCCNC(=O)C2CC2c2ccc(Cl)c(Cl)c2)CC1` (stereo not drawn) [TCMDC-136259], in the data set with HepG2 cells, the Unified cytotox was 6.40 µM. The “Is compound selective in assay? Pf GC-ATP active?” value (“Is compound selective” below) in data set [1] is given as 0 (0: NO). Further, the half-inhibitory concentration (IC50) in data set [2] was 4350 nM.

The molecule `CC(Cc1ccc(COc2ccc(CC(CO)NCCc3cccc(Cl)c3)cc2)cc1)NCCc1cccc(Cl)c1.Cl` (stereo not drawn) [TCMDC-139844] returned a Unified cytotox in the data set on HepG2 cells of 3.50 µM. Also, in data set [1], the “Is compound selective” value is 0 (0: NO). The IC50 in data set [2] is 1390 nM.

For the molecule `CC(C)CCNCc1ccc(OCc2cccc(COc3ccc(CNCCC(C)C)cc3I)c2)c(I)c1.Cl` [TCMDC-137274], the Unified cytotox with HepG2 cells turned out to be 5.30 µM. For the same molecule, the “Is compound selective” value in data set [1] is 1 (1: YES). Also, in data set [2], the IC50 is 370 nM.

With `CC(C)CCNC(=O)c1cnc2c(O)cccc2c1Nc1cccc(NC(=O)c2ccc(F)cc2)c1.O=C(O)C(F)(F)F` [TCMDC-139606], in the data set on HepG2 cells, the Unified cytotox is on record as 5.27 µM. In addition, in data set [1], the “Is compound selective” value is given as 0 (0: NO). Further, in data set [2], the half-maximal inhibitory concentration (IC50) is 1270 nM.

With `CS(=O)(=O)CCNCc1nc(-c2ccc3c(=O)[nH]cnc3c2)cs1` [TCMDC-138539], in the data set with HepG2 cells, the Unified cytotox was determined as 4.20 µM. Moreover, in data set [1], the “Is compound selective” value is 0 (0: NO). Moreover, the half-inhibitory concentration (IC50) in data set [2] was 2680 nM.

As for `CCCCCCC(N)c1ccc(OCCCOc2ccc(C(N)CCCCCC)cc2)cc1.Cl` (stereo not drawn) [TCMDC-137621], in the data set on HepG2 cells, the Unified cytotox is on record as 1.90 µM. In addition, in data set [1], the “Is compound selective” value is 1 (1: YES). In addition, the concentration for half-maximal inhibition (IC50) in data set [2] was 53.3 nM.

In the case of `CN1CCN(CCCN(Cc2ccc(-c3ccc(CNC4CCCC4)cc3)cc2)C(=O)CCC2CCCC2)CC1.O=C(O)C(F)(F)F` [TCMDC-140560], the Unified cytotox with HepG2 cells is listed as 6.00 µM. For the same molecule, the “Is compound selective” value in data set [1] is reported as 1 (1: YES). For the same molecule, the IC50 in data set [2] is 530 nM.

With `COc1ccc(CNCc2ccc(F)cc2)cc1-c1ccc(OC)c(S(=O)(=O)NCCN2CCCC2)c1.O=C(O)C(F)(F)F` [TCMDC-132295], the Unified cytotox in the data set with HepG2 cells was found to be 11.40 µM. For the same molecule, the “Is compound selective” value in data set [1] is recorded as 1 (1: YES). Besides, the IC50 in data set [2] was 720 nM.

`CC(C)CNCc1cccc(-c2cccc(CN(CCN(C)C)C(=O)Nc3ccccc3)c2)c1.O=C(O)C(F)(F)F` [TCMDC-140592] came in with a Unified cytotox in the data set with HepG2 cells of 15.78 µM. In addition, the “Is compound selective” value in data set [1] is 1 (1: YES). Also, in data set [2], the concentration for half-maximal inhibition (IC50) is 660 nM.

In the data set with HepG2 cells, `Cc1cccc2nc(-c3ccc(-c4cccc(CNCCN5CCNCC5)c4)cc3)[nH]c12` [TCMDC-132867] returned a Unified cytotox of 13.40 µM. Moreover, the “Is compound selective” value in data set [1] is reported as 1 (1: YES). Further, in data set [2], the 50% inhibitory concentration (IC50) is 840 nM.

As for `Nc1cc(C=Cc2ccc([N+](=O)[O-])o2)nc2ccccc12` [TCMDC-142295], the Unified cytotox in the data set on HepG2 cells is listed as 11.70 µM. Moreover, in data set [1], the “Is compound selective” value is reported as 1 (1: YES). Besides, in data set [2], the IC50 is 200 nM.

In the case of `CN(C)Cc1ccc(-c2cccc(Nc3nccc(NCC(O)c4ccccc4)n3)c2)cc1` (stereo not drawn) [TCMDC-136467], the Unified cytotox in the data set with HepG2 cells amounted to 5.87 µM. The “Is compound selective” value in data set [1] is recorded as 0 (0: NO). Further, the IC50 in data set [2] is 900 nM.

With `COc1ccc(CCNC(C)Cc2ccc(C(=O)Nc3ccc(CC(C)NCCc4cccc(Cl)c4)cc3)cc2)cc1` (stereo not drawn) [TCMDC-139750], in the data set on HepG2 cells, the Unified cytotox is on record as 2.40 µM. Further, in data set [1], the “Is compound selective” value is on record as 0 (0: NO). For the same molecule, the IC50 in data set [2] is 620 nM.

In turn, `CN(C)CCNC(=O)c1ccc(-c2cnc3ccc(NCc4ccc(Cl)c(Cl)c4)nn23)cc1` [TCMDC-136678] returned a Unified cytotox in the data set with HepG2 cells of 16.66 µM. Also, in data set [1], the “Is compound selective” value is 1 (1: YES). The half-maximal inhibitory concentration (IC50) in data set [2] was 330 nM.

In the case of `CN(C)CCCNc1nccc(N(C)c2ccc(NC(=O)Nc3cc(C(F)(F)F)ccc3F)cc2)n1.O=C(O)C(F)(F)F` [TCMDC-141633], in the data set with HepG2 cells, the Unified cytotox was 17.30 µM. For the same molecule, the “Is compound selective” value in data set [1] was 1 (1: YES). The IC50 in data set [2] was 1000 nM.

In the data set with HepG2 cells, `COc1ccc2nc3cc(Cl)ccc3c(NCCCCNc3c4ccc(Cl)cc4nc4ccc(OC)cc34)c2c1` [TCMDC-138218] came in with a Unified cytotox of 14.47 µM. Also, the “Is compound selective” value in data set [1] is listed as 1 (1: YES). Also, the IC50 in data set [2] was 200 nM.

In turn, `Cc1cccc2nc(-c3ccc(-c4cccc(CN5CCC(CCN6CCCCC6)CC5)c4)s3)[nH]c12.O=C(O)C(F)(F)F` [TCMDC-133923] registered a Unified cytotox in the data set with HepG2 cells of 3.87 µM. Also, the “Is compound selective” value in data set [1] was 0 (0: NO). Besides, the IC50 in data set [2] was 460 nM.

Take `CCN(CC)CCCNc1ncc2c(-c3ccc(NC(=O)Nc4cc(C(F)(F)F)ccc4F)cc3)nn(C)c2n1.O=C(O)C(F)(F)F` [TCMDC-141583]: in the data set on HepG2 cells, the Unified cytotox turned out to be 9.50 µM. In data set [1], the “Is compound selective” value is on record as 0 (0: NO). Further, in data set [2], the IC50 was 3480 nM.

For `CCOc1ccc2ccccc2c1CNCCCCCCNCc1c(OCC)ccc2ccccc12.CS(=O)(=O)O` [TCMDC-137791], the Unified cytotox in the data set with HepG2 cells worked out at 1.75 µM. The “Is compound selective” value in data set [1] is on record as 0 (0: NO). Besides, the IC50 in data set [2] is 700 nM.

In turn, `CN1CCN(CCCN(Cc2cccc(-c3cccc(CNC4CCCC4)c3)c2)C(=O)/C=C/c2ccccc2)CC1.O=C(O)C(F)(F)F` [TCMDC-140543] returned a Unified cytotox in the data set with HepG2 cells of 7.17 µM. Besides, in data set [1], the “Is compound selective” value is reported as 0 (0: NO). In addition, in data set [2], the 50% inhibitory concentration (IC50) was 800 nM.

In the data set with HepG2 cells, `Cl.O=C(NCCCCN1CCC(c2ccc3c(c2OCCO)CCCC3)CC1)c1ccc2oc(-c3ccc(C(F)(F)F)cc3)cc2c1` [TCMDC-138771] displayed a Unified cytotox of 6.59 µM. Further, the “Is compound selective” value in data set [1] was 1 (1: YES). In addition, the half-inhibitory concentration (IC50) in data set [2] is 630 nM.

For the molecule `COc1cc2ccccc2c(OC)c1CNCCCCCCNCc1c(OC)cc2ccccc2c1OC.CS(=O)(=O)O` [TCMDC-137843], the Unified cytotox in the data set on HepG2 cells came to 4.25 µM. Moreover, the “Is compound selective” value in data set [1] is given as 1 (1: YES). Also, the IC50 in data set [2] is 320 nM.

For the molecule `CC(C)(C)N1CCC(N(Cc2ccc(-c3ccc(C(F)(F)F)cc3)cc2)C(=O)Cn2c(CCc3cccc(F)c3F)cc(=O)c3cccnc32)CC1.O=C(O)C(O)C(O)C(=O)O` [TCMDC-136011], in the data set with HepG2 cells, the Unified cytotox was determined as 3.10 µM. In addition, the “Is compound selective” value in data set [1] is reported as 0 (0: NO). Besides, the half-inhibitory concentration (IC50) in data set [2] was 2390 nM.

Consider `Cl.O=C(/C=C/c1ccc(Cl)c(Cl)c1)N1CCC(CCN2CCC(c3c[nH]c4cnccc34)CC2)CC1` [TCMDC-140136], for which the Unified cytotox in the data set with HepG2 cells came out at 7.21 µM. Besides, the “Is compound selective” value in data set [1] is given as 1 (1: YES). Besides, in data set [2], the concentration for half-maximal inhibition (IC50) is 200 nM.

In the data set with HepG2 cells, `O=C(Nc1ccc(N2CCNCC2)cc1)c1ccn2ncc(-c3cccc(Cl)c3)c2n1` [TCMDC-132663] came in with a Unified cytotox of 22.22 µM. Further, the “Is compound selective” value in data set [1] is 0 (0: NO). Further, the IC50 in data set [2] is 3500 nM.

The molecule `Br.CCCCC(NCC)c1ccc(OCCOc2ccc(C(CCCC)NCC)cc2)cc1` (stereo not drawn) [TCMDC-137612] yielded a Unified cytotox in the data set with HepG2 cells of 6.10 µM. Besides, the “Is compound selective” value in data set [1] is given as 1 (1: YES). For the same molecule, in data set [2], the IC50 is 420 nM.

For `CCc1ccc(CN2CCC(CNC(=O)c3cc(-c4cccc(F)c4)cs3)C2)cc1.O=C(O)C(F)(F)F` (stereo not drawn) [TCMDC-134432], the Unified cytotox in the data set with HepG2 cells worked out at 7.22 µM. The “Is compound selective” value in data set [1] was 0 (0: NO). Moreover, the IC50 in data set [2] was 1260 nM.
